Measured values reported in patent US20120064062A1 (priority 2010, published 2012).
Where a SMILES comes first, the peptide text is derived from it. [ ]: non-standard residue; d: D form. The star is where a group is joined. Sta = CC(C)C[C@H](N)[C@@H](O)CC(=O)O; Isovaleryl = CC(C)CC(=O)*

Key:
Y. pestis Pla = Y. pestis Pla (Yersinia pestis, UniProt P17811); test: biochemical
Pla [1] = biological target: T1, Pla (Yersinia pestis, UniProt P17811); test: biochemical
[2] = Cytotoxicity to HeLa cells in serum-free culture (MTS); conditions: human
cathepsin D = biological target: T2, cathepsin D (Homo sapiens, UniProt P07339); test: Cathepsin D fluorometric counter-screen; format: biochemical; conditions: z-score = number of standard deviations below DMSO control
T2 construct: purchased R&D Systems 1014-AS-010
T2 sequence (P07339 65-412): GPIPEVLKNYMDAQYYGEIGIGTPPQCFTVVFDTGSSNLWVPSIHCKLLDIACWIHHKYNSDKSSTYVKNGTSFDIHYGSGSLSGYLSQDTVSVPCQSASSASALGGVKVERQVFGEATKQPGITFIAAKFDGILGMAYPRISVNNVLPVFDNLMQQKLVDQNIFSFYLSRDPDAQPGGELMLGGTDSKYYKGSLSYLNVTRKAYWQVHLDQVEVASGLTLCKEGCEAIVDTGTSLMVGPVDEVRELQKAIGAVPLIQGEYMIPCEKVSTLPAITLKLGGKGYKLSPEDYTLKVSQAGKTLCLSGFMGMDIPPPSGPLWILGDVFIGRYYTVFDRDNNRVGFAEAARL

[3] = biological target: T3, tissue plasminogen activator (tPA) (Homo sapiens, UniProt P00750); test: tPA plasminogen activator counter-screen (Glu-Plg, S2251); format: biochemical; conditions: z-score = number of standard deviations below DMSO control
T3 construct: purchased US Biological, Inc. T5600-30
T3 sequence (P00750 36-562): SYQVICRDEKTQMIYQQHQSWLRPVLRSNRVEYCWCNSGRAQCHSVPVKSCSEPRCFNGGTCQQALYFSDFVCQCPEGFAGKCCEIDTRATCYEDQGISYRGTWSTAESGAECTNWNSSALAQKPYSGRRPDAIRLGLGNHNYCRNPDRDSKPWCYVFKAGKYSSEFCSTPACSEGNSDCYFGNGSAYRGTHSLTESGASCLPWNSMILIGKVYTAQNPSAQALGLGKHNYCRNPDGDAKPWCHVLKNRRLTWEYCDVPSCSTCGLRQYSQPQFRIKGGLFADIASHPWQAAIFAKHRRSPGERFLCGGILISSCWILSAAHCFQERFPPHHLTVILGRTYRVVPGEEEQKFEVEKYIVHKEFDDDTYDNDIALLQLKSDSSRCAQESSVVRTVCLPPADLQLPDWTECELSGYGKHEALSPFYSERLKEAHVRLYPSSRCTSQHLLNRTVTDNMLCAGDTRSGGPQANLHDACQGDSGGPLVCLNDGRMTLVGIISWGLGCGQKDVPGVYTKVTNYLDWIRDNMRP

Plasmin = Plasmin (Homo sapiens, UniProt P00747); test: Plasmin inhibitory activity counter-screen (coupling enzyme); format: biochemical; conditions: z-score = number of standard deviations the enzymatic activity falls below the DMSO non-inhibitory control
Plasmin, sequence (P00747 581-810 limits assumed): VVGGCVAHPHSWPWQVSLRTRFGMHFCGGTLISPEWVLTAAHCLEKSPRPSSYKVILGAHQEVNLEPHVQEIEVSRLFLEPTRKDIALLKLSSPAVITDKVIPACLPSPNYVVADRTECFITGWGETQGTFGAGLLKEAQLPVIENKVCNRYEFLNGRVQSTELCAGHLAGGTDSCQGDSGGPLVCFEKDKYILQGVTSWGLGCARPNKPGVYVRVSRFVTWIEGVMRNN
Plasmin, sequence (P00747 97-580 partner limits assumed): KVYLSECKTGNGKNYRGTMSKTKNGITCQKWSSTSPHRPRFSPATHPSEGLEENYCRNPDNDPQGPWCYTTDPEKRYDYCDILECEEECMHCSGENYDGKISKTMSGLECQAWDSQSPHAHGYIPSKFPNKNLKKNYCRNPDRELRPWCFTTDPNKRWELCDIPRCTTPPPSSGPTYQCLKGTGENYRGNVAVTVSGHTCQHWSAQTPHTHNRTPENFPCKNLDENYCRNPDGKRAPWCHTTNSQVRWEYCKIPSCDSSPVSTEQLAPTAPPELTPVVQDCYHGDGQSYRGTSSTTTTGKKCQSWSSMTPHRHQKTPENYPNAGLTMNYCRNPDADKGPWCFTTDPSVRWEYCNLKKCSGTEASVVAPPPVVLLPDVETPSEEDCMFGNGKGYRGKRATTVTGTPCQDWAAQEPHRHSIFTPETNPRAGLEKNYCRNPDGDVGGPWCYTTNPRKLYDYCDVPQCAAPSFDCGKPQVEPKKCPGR

HIV-1 protease = biological target: T4, HIV-1 protease (Human immunodeficiency virus type 1 group M subtype B, UniProt P04585); test: HIV-1 protease counter-screen; format: biochemical; conditions: % of the enzymatic activity of a DMSO non-inhibitory control
T4 construct: Plasmin, tPA, uPA, Cathepsin D, Cathepsin E, and HIV-1 protease

[4] = biological target: T5, urokinase type plasminogen activator (uPA) (Homo sapiens, UniProt P00749); test: uPA plasminogen activator counter-screen (Glu-Plg, S2251); format: biochemical; conditions: z-score = number of standard deviations below DMSO control
T5 construct: purchased US Biological, Inc. U2605-01

cathepsin E = biological target: T6, cathepsin E (Homo sapiens, UniProt P14091); test: Cathepsin E fluorometric counter-screen; format: biochemical; conditions: z-score = number of standard deviations below DMSO control
T6 construct: purchased R&D Systems 1294-AS-010
T6 sequence (P14091 54-396): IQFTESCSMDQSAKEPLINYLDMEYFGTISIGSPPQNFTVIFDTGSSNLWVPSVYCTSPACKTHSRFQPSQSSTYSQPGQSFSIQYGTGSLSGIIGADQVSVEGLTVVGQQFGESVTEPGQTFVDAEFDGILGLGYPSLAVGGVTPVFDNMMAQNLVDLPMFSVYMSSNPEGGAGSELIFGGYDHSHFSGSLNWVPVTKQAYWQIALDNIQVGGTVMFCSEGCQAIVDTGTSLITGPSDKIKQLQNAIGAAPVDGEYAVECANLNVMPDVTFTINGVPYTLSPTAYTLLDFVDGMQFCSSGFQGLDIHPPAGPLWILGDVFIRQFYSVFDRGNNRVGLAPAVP

Pla [5] = biological target: T1, Pla; format: biochemical
Target sequence in this assay (P17811 21-312 limits assumed): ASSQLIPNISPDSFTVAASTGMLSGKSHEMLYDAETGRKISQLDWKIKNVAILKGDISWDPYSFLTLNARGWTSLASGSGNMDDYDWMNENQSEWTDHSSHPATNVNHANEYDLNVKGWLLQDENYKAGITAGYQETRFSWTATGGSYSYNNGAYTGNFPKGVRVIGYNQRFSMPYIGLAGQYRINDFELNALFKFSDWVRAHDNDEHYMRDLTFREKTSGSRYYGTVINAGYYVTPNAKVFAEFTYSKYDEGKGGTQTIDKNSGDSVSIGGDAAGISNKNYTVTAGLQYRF

Y. pestis Pla, sequence (P17811 21-312 limits assumed): as above

## COC(=O)c1c(C)oc2ccc(N(C(=O)c3ccncc3)S(=O)(=O)c3ccc(F)cc3C)cc12 [A]
Y. pestis Pla
  IC50: 6.6 µM

## NC(N)=NCCC[C@H](N)C(=O)NCC(=O)O [Arg-Gly] (H-Arg-Gly-OH)
Pla [1]
  Ki: 5200 µM

## NCCCC[C@H](NC(=O)[C@@H](N)CCCN=C(N)N)C(=O)O [Arg-Lys] (H-Arg-Lys-OH)
Pla [1]
  Ki: 900 µM

## CC(C)[C@H](NC(=O)[C@@H](N)CCCNC(=N)N)C(=O)O [Arg-Val] (H-Arg-Val-OH; N-terminus and C-terminus assumed)
Pla [1]
  Ki: 4800 µM

## O=S(=O)(Nc1ccccc1-c1ccccc1)c1ccc(Br)s1 [B]
Y. pestis Pla
  IC50: 8.9 µM

## COc1ccc(S(=O)(=O)Nc2ccccc2Oc2ccccc2)cc1C [C]
Y. pestis Pla
  IC50: 22 µM

## O=S(=O)(Nc1cc(Cl)ccc1Oc1ccccc1)c1ccc2c(c1)OCCO2 [Compound 1]
[2]
  CC50: > 100 µM
Cathepsin D
  Cathepsin-D Z-Score at 50 μM: −0.2
Y. pestis Pla
  IC50: 4.25 µM
[3]
  tPA Z-Score at 50 μM: −0.3
Plasmin
  Plasmin Z-Score at 50 μM: 4.9
HIV-1 protease
  inhibition at 50 µM: 10%
[4]
  uPA Z-Score at 50 μM: 0.5
Cathepsin E
  Cathepsin-E Z-Score at 50 μM: −0.1

## O=S(=O)(Nc1ccccc1-c1ccccc1)c1cccs1 [Compound 2]
[2]
  CC50: 62 µM
Cathepsin D
  Cathepsin-D Z-Score at 50 μM: −1.6
Y. pestis Pla
  IC50: 4.3 µM
[3]
  tPA Z-Score at 50 μM: 0.5
Plasmin
  Plasmin Z-Score at 50 μM: 1.8
HIV-1 protease
  inhibition at 50 µM: 2%
[4]
  uPA Z-Score at 50 μM: 0.5
Cathepsin E
  Cathepsin-E Z-Score at 50 μM: −0.3

## O=S(=O)(Nc1cc(Cl)ccc1Oc1ccccc1)c1cccs1 [Compound 3]
[2]
  CC50: 49 µM
  selectivity ratio: ~50
Cathepsin D
  Cathepsin-D Z-Score at 50 μM: 0
Y. pestis Pla
  IC50: 1 µM
[3]
  tPA Z-Score at 50 μM: 0.3
Plasmin
  Plasmin Z-Score at 50 μM: 2.5
HIV-1 protease
  inhibition at 50 µM: 13%
[4]
  uPA Z-Score at 50 μM: 0.5
Cathepsin E
  Cathepsin-E Z-Score at 50 μM: 0.4

## O=[N+]([O-])c1ccccc1S(=O)(=O)Nc1cc(Cl)ccc1Oc1ccccc1 [Compound 4]
[2]
  CC50: 47 µM
Cathepsin D
  Cathepsin-D Z-Score at 50 μM: 0.6
Y. pestis Pla
  IC50: 9.9 µM
[3]
  tPA Z-Score at 50 μM: 0.4
Plasmin
  Plasmin Z-Score at 50 μM: 1.4
HIV-1 protease
  inhibition at 50 µM: 11%
[4]
  uPA Z-Score at 50 μM: 1
Cathepsin E
  Cathepsin-E Z-Score at 50 μM: 0.9

## O=S(=O)(Nc1ccccc1C1=NCCc2ccccc21)c1ccc(Cl)cc1 [D]
Y. pestis Pla
  IC50: 35.8 µM

## O=C(O)CN(CCN(CC(=O)O)CC(=O)O)CC(=O)O [EDTA]
Pla [5]
  Inhibitory effect against Pla: enhance activity

## O=C(O)CN(CCOCCOCCN(CC(=O)O)CC(=O)O)CC(=O)O [EGTA]
Pla [5]
  Inhibitory effect against Pla: enhance activity

## CC(=O)Nc1ccc(S(=O)(=O)Nc2ccccc2Oc2ccccc2)cc1 [E]
Y. pestis Pla
  IC50: 50.4 µM

## COc1ccc(S(=O)(=O)Nc2ccccc2Oc2ccccc2)c(OC)c1 [F]
Y. pestis Pla
  IC50: 52.3 µM

## COc1ccc(C)cc1S(=O)(=O)Nc1cc(Cl)ccc1Oc1ccccc1 [G]
Y. pestis Pla
  IC50: 84.2 µM

## Cc1ccc(S(=O)(=O)Nc2ccccc2C(=O)c2ccccc2)cc1 [H]
Y. pestis Pla
  IC50: 100 µM

## O=S(=O)(Nc1ccccc1Oc1ccccc1)c1cc(Cl)ccc1Cl [I]
Y. pestis Pla
  IC50: 139 µM

## NCCCC[C@H](N)C(=O)NCC(=O)O [Lys-Gly] (H-Lys-Gly-OH)
Pla [1]
  Ki: 5600 µM

## NCCCC[C@H](NC(=O)[C@@H](N)CCCCN)C(=O)O [Lys-Lys]
Pla [1]
  Ki: 4500 µM

## CC(C)[C@H](NC(=O)[C@@H](N)CCCCN)C(=O)O [Lys-Val, reference compound] (H-Lys-Val-OH; C-terminus assumed)
Y. pestis Pla; read-out: Average inhibition
  inhibition at 16000 µM: 60%
Pla [1]
  Ki: 8400 µM

## CC(C)CC(=O)N[C@H](C(=O)N[C@H](C(=O)N[C@@H](CC(C)C)[C@@H](O)CC(=O)N[C@@H](C)C(=O)N[C@@H](CC(C)C)[C@@H](O)CC(=O)O)C(C)C)C(C)C [pepstatin] (Isovaleryl-VV[Sta]A[Sta]-OH)
Pla [5]
  Inhibitory effect against Pla: no inhibitory effect
